# Test results taken from ChEMBL document CHEMBL1136600, “Functional expression and characterization of EryA, the erythritol kinase of Brucella abortus, and enzymatic synthesis of L-erythritol-4-phosphate” (Bioorg Med Chem Lett, 2003).
# What was measured:
# Brucella abortus = assay: Kinetic parameter against EryA, erythritol kinase of brucella abortus expressed in Escherichia coli
# [1] = tested on: Propionibacterium acidipropionici; assay: Kinetic parameters against EryA, erythritol kinase from Propionibacterium pentosaceum
# [2] = Inhibition of 4-diphosphocytidyl-2-C-methyl-d-erythritol (CDP-ME) synthase
Structure (SMILES),Km (Brucella abortus) [µM],k cat (Brucella abortus) [s⁻¹],Km [1] [µM],IC50 [2] [µM]
Nc1ncnc2c1ncn2[C@@H]1O[C@H](COP(=O)(O)OP(=O)(O)OP(=O)(O)O)[C@@H](O)[C@H]1O,9800,230,4800,
OC[C@@H](O)[C@@H](O)CO,260,230,880,
C[C@@](O)(CO)[C@@H](O)COP(=O)(O)O,,,,1360
